The text below walks through data of publication PMC6934184, “Selective DNA-PKcs inhibition extends the therapeutic index of localized radiotherapy and chemotherapy” (The Journal of Clinical Investigation, 2019).

This test deals with T1, FGFR1 (Homo sapiens, UniProt P11362).
T1 construct: purchased Thermo Fisher Scientific (Life Technologies) SelectScreen
Kind of test: SelectScreen Z'LYTE. It is filed as biochemical. In short, it runs like this: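 NU5455 was profiled across the SelectScreen Broad panel of kinase activity and binding assays. Z'LYTE reactions such as CSF1R ran at apparent Km ATP, while the Adapta CAMK1 assay used ATP listed as 10. Values are given as percent.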

T1 sequence (P11362 22-822): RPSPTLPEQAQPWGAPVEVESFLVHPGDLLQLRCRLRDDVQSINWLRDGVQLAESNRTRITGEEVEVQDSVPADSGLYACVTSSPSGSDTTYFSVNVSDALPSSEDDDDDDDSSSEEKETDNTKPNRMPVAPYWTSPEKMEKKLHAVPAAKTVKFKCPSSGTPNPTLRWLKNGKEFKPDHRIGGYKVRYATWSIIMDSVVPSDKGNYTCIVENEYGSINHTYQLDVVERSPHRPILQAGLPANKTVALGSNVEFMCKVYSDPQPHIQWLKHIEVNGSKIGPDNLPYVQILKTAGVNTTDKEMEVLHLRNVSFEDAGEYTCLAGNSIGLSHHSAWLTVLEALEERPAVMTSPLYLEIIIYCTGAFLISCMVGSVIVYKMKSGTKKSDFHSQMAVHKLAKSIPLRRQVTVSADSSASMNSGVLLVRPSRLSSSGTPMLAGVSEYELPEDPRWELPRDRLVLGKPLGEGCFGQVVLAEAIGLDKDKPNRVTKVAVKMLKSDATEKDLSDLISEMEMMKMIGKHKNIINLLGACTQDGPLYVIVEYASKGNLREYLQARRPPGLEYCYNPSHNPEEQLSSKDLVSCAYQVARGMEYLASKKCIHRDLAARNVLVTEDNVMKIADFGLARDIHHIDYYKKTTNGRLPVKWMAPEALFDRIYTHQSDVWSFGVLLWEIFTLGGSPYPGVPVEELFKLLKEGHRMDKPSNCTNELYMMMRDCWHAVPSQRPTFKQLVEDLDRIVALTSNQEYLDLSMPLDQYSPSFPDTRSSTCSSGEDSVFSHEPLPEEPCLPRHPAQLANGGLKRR

For `CN(C(=O)CN1CCOCC1)c1ccc2sc3c(-c4cccc5c(=O)cc(N6CC7CCC(C6)O7)oc45)cccc3c2c1` [NU5455], 1 µM produced 4.7% inhibition.
